Patent US20090069336A1, “PYRIMIDOTHIOPHENE COMPOUNDS” (VERNALIS (CAMBRIDGE) LIMITED., priority 2004, published 2009)

Molecular target: T1, human full-length HSP90 (Homo sapiens, UniProt P08238)
T1 construct: E. coli expressed human full-length HSP90 protein, purified >95%; made in house; host or cells: E. coli
Assay: Fluorescence polarization assay (competitive displacement of probe RBT0051001-FAM from HSP90)
Assay type: binding
Details: activity range stated in each example; read-out: activity in the fluorescence polarization assay
Source text: Fluorescence Polarization Assay
Fluorescence polarization {also known as fluorescence anisotropy} measures the rotation of a fluorescing species in solution, where the larger molecule the more polarized the fluorescence emission. When the fluorophore is excited with polarized light, the emitted light is also polarized. The molecular size is proportional to the polarization of the fluorescence emission.
The fluoroscein-labelled probe —RBT0051001-FAM—
binds to HSP90 {full-length human, full-length yeast or N-terminal domain HSP90} and the anisotropy {rotation of the probe:protein complex} is measured.
Test compound is added to the assay plate, left to equilibrate and the anisotropy measured again. Any change in anisotropy is due to competitive binding of compound to HSP90, thereby releasing probe.
Chemicals are of the highest purity commercially available and all aqueous solutions are made up in AR water. • 1) Costar 96-well black assay plate #3915 • 2) Assay buffer of (a) 100 mM Tris pH7.4; (b) 20 mM KCl; (c) 6 mM MgCl2. Stored at room temperature. • 3) BSA (bovine serum albumen) 10 mg/ml (New England Biolabs # B9001S) • 4) 20 mM probe in 100% DMSO stock concentration. Stored in the dark at RT. Working concentration is 200 nM diluted in AR water and stored at 4° C. Final concentration in assay 80 nM. • 5) E. coli expressed human full-length HSP90 protein, purified >95% (see, e.g., Panaretou et al., 1998) and stored in 50 μL aliquots at −80° C.
• 1) Add 100 μl 1× buffer to wells 11A and 12A (=FP BLNK) • 2) Prepare assay mix—all reagents are kept on ice with a lid on the bucket as the probe is light-sensitive.
• 3) Aliquot 100 μl assay mix to all other wells • 4) Seal plate and leave in dark at room temp for 20 minutes to equilibrate Compound Dilution Plate—1×3 dilution series • 1) In a clear 96-well v-bottom plate-{# VWR 007/008/257} add 10 μl 100% DMSO to wells B1 to H11 • 2) To wells A1 to A11 add 17.5 μl 100% DMSO • 3) Add 2.5 μl cpd to A1. This gives 2.5 mM {50×} stock cpd-assuming cpds 20 mM. • 4) Repeat for wells A2 to A10. Control in columns 11 and 12. • 5) Transfer 5 μl from row A to row B—not column 12. Mix well. • 6) Transfer 5 μl from row B to row C. […] In column 11 {provides standard curve} only add compound B11-H11. Add 2 μl of 100 mM standard cpd to wells B12-H12 {is positive control} • 13) The Z′ factor is calculated from zero controls and positive wells. It typically gives a value of 0.7-0.9.
The compounds tested in the above assay were assigned to one of two activity ranges, namely A=<10 μM; B=>10 μM, and those assignments are reported above.

T1 sequence (P08238 whole entry): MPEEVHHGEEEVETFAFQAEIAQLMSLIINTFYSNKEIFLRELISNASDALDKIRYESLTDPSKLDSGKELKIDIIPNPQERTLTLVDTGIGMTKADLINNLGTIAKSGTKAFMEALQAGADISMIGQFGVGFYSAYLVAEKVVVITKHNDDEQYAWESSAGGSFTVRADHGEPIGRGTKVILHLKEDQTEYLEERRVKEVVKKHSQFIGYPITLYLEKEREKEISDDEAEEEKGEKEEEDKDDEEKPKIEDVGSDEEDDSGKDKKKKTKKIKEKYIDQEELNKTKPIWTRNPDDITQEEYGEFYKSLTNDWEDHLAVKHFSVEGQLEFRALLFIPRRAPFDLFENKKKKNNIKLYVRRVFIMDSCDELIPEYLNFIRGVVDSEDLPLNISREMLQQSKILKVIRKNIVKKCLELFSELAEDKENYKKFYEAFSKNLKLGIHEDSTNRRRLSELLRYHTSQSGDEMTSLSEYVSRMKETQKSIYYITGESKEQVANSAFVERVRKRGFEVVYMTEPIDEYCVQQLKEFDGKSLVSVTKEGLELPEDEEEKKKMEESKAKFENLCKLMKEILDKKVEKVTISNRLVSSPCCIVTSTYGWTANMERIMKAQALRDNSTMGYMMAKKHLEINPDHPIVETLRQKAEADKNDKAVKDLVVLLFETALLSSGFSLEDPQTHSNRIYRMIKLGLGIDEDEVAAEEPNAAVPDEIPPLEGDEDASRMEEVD

| SMILES | IC50 |
| --- | --- |
| Cc1ccc(-c2nc(N)nc3sc(-c4ncon4)cc23)c(C)c1 [Example 10, 4-(2,4-dimethyl-phenyl)-6-[1,2,4]oxadiazol-3-yl-thieno[2,3-d]pyrimidin-2-ylamine] | < 10 µM |
| Nc1nc(-c2ccc(Cl)cc2Cl)c2cc(-c3n[nH]c(N)n3)sc2n1 [Example 38, 6-(5-Amino-1H-[1,2,4]triazol-3-yl)-4-(2,4-dichloro-phenyl)-thieno[2,3-d]pyrimidin-2-ylamine] | < 10 µM |
| CCN(CC)CCOc1cc(-c2nc(N)nc3sc(-c4n[nH]c(N)n4)cc23)c(Cl)cc1Cl [Example 39, 6-(5-Amino-1H-[1,2,4]triazol-3-yl)-4-[2,4-dichloro-5-(2-diethylamino-ethoxy)-phenyl]-thieno[2,3-d]pyrimidin-2-ylamine] | < 10 µM |
| CCN(CC)CCOc1cc(-c2nc(N)nc3sc(-c4nn[nH]n4)cc23)c(Cl)cc1Cl [Example 40, 4-[2,4-Dichloro-5-(2-diethylamino-ethoxy)-phenyl]-6-(2H-tetrazol-5-yl)-thieno[2,3-d]pyrimidin-2-ylamine] | < 10 µM |
| CCOC(=O)/C=C/c1cc2c(-c3cc(OCCN(CC)CC)c(Cl)cc3Cl)nc(N)nc2s1 [Example 41, 3-{2-Amino-4-[2,4-Dichloro-5-(2-diethylamino-ethoxy)-phenyl]-thieno[2,3-d]pyrimidin-6-yl}-acrylic acid ethyl ester] | < 10 µM |

Test system: not listed separately
Assay: Sulforhodamine B (SRB) growth inhibition / growth arrest assay
Assay type: cell-based
Details: cell line not stated
Protocol: A growth inhibition assay was also employed for the evaluation of candidate HSP90 inhibitors:
Assessment of cytotoxicity by Sulforhodamine B (SRB) assay: calculation of 50% inhibitory concentration (IC50).
• 1) Determine cell number by haemocytometer. • 2) Using an 8 channel multipipettor, add 160 μl of the cell suspension (3600 cells/well or 2×10^4 cells/ml) to each well of a 96-well microtitre plate. • 3) Incubate overnight at 37° C. in a CO2 incubator. […]
• 8) Tip off medium into sink and immerse plate slowly into 10% ice cold trichloroacetic acid (TCA). […] Leave for 15 mins. • 12) Wash off unbound SRB stain with four washes of 1% acetic acid. • 13) Dry plates in incubator. • 14) Solubilise SRB using 100 μl of 10 mM Tris base and put plates on plate shaker for 5 mins. • 15) Determine absorbance at 540 nm using a plate reader. Calculate mean absorbance for quadruplicate wells and express as a percentage of value for control, untreated wells. • 16) Plot % absorbance values versus log drug concentration and determine the IC50.

| SMILES | IC50 |
| --- | --- |
| Cc1ccc(-c2nc(N)nc3sc(-c4ncon4)cc23)c(C)c1 [Example 10, 4-(2,4-dimethyl-phenyl)-6-[1,2,4]oxadiazol-3-yl-thieno[2,3-d]pyrimidin-2-ylamine] | < 50 µM |
